Results taken from BindingDB's records for doi:10.1021/np070259w (Institute of Plant Biochemistry, 2007).
Where a name gives a salt, the structure may show the parent alone.

Assay: Inhibition of equine BChE at 100 uM by Ellman's method

Work on CNC(=O)Oc1ccc2c(c1)[C@]1(C)CCN(C)[C@@H]1N2C [(3aS,8aR)-1,3a,8-trimethyl-1,2,3,3a,8,8a-hexahydropyrrolo[2,3-b]indol-5-yl methylcarbamate hydrochloride] yielded an IC50 of 3.5 µM.
